This is an account of results in patent US7741351B2, “Compounds which potentiate glutamate receptor and uses thereof in medicine” (Glaxo Group Limited, priority 2004, dated 2010).

pEC50: −log10 of the molar value.

In the test the target is T1, human GluR2 flip (unedited) AMPA receptor subunit (Homo sapiens, UniProt P42262).
T1 construct: expressed in transfected cells
As to the kind of experiment: Calcium influx fluorescence assay (FLUO4, potentiation of glutamate response). In kind it is cell-based. As to conditions: Assay a); HEK 293 cells expressing human GluR2 flip (unedited); 100 μM glutamate final; peak fluorescence. Here is the method:
The ability of the compounds of the invention to potentiate glutamate receptor-mediated response were determined a) by using fluorescent calcium-indicator dyes such as FLUO4 and b) by measuring glutamate-evoked current recorded from human GluR2 flip unedited HEK293 cells.
a) Calcium Influx Fluorescence Assay
384 well plates were prepared containing confluent monolayer of HEK 293 cells either stably expressing or transiently transfected with human GluR2 flip (unedited) AMPA receptor subunit. These cells form functional homotetrameric AMPA receptors. […]
The cell plate was then transferred into a fluorescence imaging plate based reader [such as the FLIPR384 (Molecular Devices)]. A baseline fluorescence reading was taken over a 10 to 240 second period, and then 10 μL from each plate containing a compound of the invention made up in standard buffer solution (in a concentration range from 100 μM to 10 pM) was added (to give a final concentration in the range 30 μM to 3 pM). The fluorescence was read over 5 minute period. […] The fluoresecence was then read over a 4 minute period. The activities of the compounds of the invention and reference compounds were determined by measuring peak fluorescence after the last addition. The activity can also be expressed relative to the fluorescence increase induced by cyclothiazide at their maximum response (i.e. greater than 30 μM).

T1 sequence (P42262 25-883 isoform P42262-2 limits assumed): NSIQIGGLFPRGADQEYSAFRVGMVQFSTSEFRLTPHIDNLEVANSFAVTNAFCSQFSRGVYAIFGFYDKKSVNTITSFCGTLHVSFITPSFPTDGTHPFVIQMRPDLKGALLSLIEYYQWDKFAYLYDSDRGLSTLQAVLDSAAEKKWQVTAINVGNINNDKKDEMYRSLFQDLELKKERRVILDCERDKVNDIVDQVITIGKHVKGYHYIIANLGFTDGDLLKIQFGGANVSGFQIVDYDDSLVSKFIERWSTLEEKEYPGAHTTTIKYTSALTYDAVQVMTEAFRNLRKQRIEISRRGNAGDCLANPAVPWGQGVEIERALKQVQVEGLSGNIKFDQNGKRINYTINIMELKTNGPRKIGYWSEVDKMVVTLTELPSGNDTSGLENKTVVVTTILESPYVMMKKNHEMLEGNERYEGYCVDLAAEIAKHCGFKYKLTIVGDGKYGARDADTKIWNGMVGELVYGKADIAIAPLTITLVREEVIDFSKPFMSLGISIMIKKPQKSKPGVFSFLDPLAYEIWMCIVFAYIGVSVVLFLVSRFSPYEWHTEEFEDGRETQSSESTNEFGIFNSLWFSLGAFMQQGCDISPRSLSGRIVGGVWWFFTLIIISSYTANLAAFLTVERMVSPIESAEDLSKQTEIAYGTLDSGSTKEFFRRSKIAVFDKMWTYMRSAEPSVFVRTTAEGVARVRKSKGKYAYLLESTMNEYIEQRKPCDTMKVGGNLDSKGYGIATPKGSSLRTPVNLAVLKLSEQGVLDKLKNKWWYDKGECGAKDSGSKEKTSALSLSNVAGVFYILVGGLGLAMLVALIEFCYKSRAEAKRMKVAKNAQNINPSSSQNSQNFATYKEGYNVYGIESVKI

In the case of `CCS(=O)(=O)Nc1cccc(-c2ccc3c(c2)CC(NS(=O)(=O)C(C)C)C3)c1` (stereo not shown) [Example 6, N-(5-{3-[(ethylsulfonyl)amino]phenyl}-2,3-dihydro-1H-inden-2-yl)-2-propanesulfonamide], the pEC50 is 5.50.
